Test results taken from patent publication US4576945A, “Hexaalkylmelamine-amino-oxy compounds” (priority 1984, dated 1986).
In brackets after ≈: the same amount, converted by molar mass. Like-named read-outs stand apart in the source and are kept apart here.

How the values were obtained:
[1] = test system: A-101D melanoma; assay: Inhibition of colony formation by human tumor cell line A-101D (melanoma), long-term exposure; type: cell-based; details: 9 days
Protocol: (§1) Cytotoxic activity of O-HMM against in vitro human tumor cells was measured as inhibition of colony formation and the results expressed as a ratio of the number of colonies in test dishes to number of control dishes, times 100 (Table 4).
(§2) Inhibition of colony formation by human tumor
(§3) ^a Percent survival as measured by the number of colonies in test

[2] = test system: A-549 lung carcinoma; assay: Inhibition of colony formation by human tumor cell line A-549 (lung carcinoma), long-term exposure; type: cell-based; details: 9 days
Protocol: as §1, §2, §3

[3] = test system: A-549 lung carcinoma, A-101D melanoma, A-498 renal carcinoma and A-204 rhabdomysarcoma; assay: Comparison of O-HMM with HMM in the human tumor colony formation test systems; type: cell-based; details: vs HMM; all four cell lines
Protocol: as §1

[4] = test system: rats; assay: Acute toxic effects after intraperitoneal administration in rats; type: in vivo, Male Harlen-Sprague-Dawley rats; details: rat; 20 mg/kg intraperitoneal
Protocol: Male Harlen-Sprague-Dawley rats, 200-300 g were given 20 mg/kg of O-HMM by intraperitoneal injection (control rats received saline vehicle only) and their urine collected for two consecutive 24 hr. periods.

[5] = test system: A-498 renal carcinoma; assay: Inhibition of colony formation by human tumor cell line A-498 (renal carcinoma), long-term exposure; type: cell-based; details: 9 days
Protocol: as §1, §2, §3

[6] = Solubility in lipid and aqueous media; type: physicochemical
[7] = test system: male BDF1 mice; assay: Toxicity study (LD50 study) in mice; type: in vivo; details: IP
Protocol: These effects diminished over a period of about 3-5 hours until the animal appeared normal and resumed activity.

[8] = Rearrangement of O-HMM to HDT (chemical stability); type: physicochemical; details: for degraded at 4 h / degraded at 24 h / degraded at 26 h / degraded at 20 h: read-out: HDT (formed by rearrangement, determined by NMR); for remaining at 4 h / remaining at 24 h / remaining at 26 h / remaining at 20 h: read-out: HMM--NO (remaining, determined by NMR); for degraded at 24 h / remaining at 24 h: h2o; for degraded at 20 h / remaining at 20 h: 135° C. sealed tube
Source text: Solvent Temp. Time HMM--NO HDT
^a Yields determined by NMR
^b Sealed tube reaction. Solutions degassed with argon and then seale
^d 0.1 equiv. mchlorobenzoic acid
^e 0.1 equiv. pnitrobenzoic acid
^f 0.05 M HOAc/NaOAc pH 5

[9] = test system: A-204 rhabdomysarcoma; assay: Inhibition of colony formation by human tumor cell line A-204 (rhabdomysarcoma), long-term exposure; type: cell-based; details: 9 days
Protocol: as §1, §2, §3

[10] = h2o/h+ (0.05 m hoac/naoac), pH 5, H2O/H+ (0.05 M HOAc/NaOAc pH 5), 25° C.
[11] = h2o/h+ (0.05 m hoac/naoac), pH 5, H2O/H+ (0.05 M HOAc/NaOAc pH 5), 50° C.
[12] = hccl3/h+ (m-chlorobenzoic acid), HCCl3/H+ (0.1 equiv. m-chlorobenzoic acid), 25° C.
[13] = hccl3/h+ (m-chlorobenzoic acid), HCCl3/H+ (0.1 equiv. m-chlorobenzoic acid), 50° C.
[14] = hccl3/h+ (m-chlorobenzoic acid), HCCl3/H+ (0.1 equiv. m-chlorobenzoic acid)
[15] = hccl3/h+ (p-nitrobenzoic acid), HCCl3/H+ (0.1 equiv. p-nitrobenzoic acid), 50° C.

CN(C)Oc1nc(N(C)C)nc(N(C)C)n1 [O-HMM, 2,4-bis(dimethylamino)-6-[(dimethylamino)oxy]-1,3,5-triazine]
inhibition of colony formation ([1]; 200 μg/ml): Complete inhibition | viability at 10 µg/mL ([1]; Homo sapiens, A101D, 216 h, 10 ug/ml, read-out: Percent survival (number of colonies in test dishes to colonies in control dishes times 100)): 95 ± 10% | viability at 20 µg/mL ([1]; Homo sapiens, A101D, 216 h, 20 ug/ml, read-out: Percent survival (number of colonies in test dishes to colonies in control dishes times 100)): 82 ± 9% | viability at 40 µg/mL ([1]; Homo sapiens, A101D, 216 h, 40 ug/ml, read-out: Percent survival (number of colonies in test dishes to colonies in control dishes times 100)): 50 ± 15% | viability at 60 µg/mL ([1]; Homo sapiens, A101D, 216 h, 60 ug/ml, read-out: Percent survival (number of colonies in test dishes to colonies in control dishes times 100)): 17 ± 16% | viability at 80 µg/mL ([1]; Homo sapiens, A101D, 216 h, 80 ug/ml, read-out: Percent survival (number of colonies in test dishes to colonies in control dishes times 100)): 1 ± 1% | viability at 100 µg/mL ([1]; Homo sapiens, A101D, 216 h, 100 ug/ml, read-out: Percent survival (number of colonies in test dishes to colonies in control dishes times 100)): 0% | viability at 120 µg/mL ([1]; Homo sapiens, A101D, 216 h, 120 ug/ml, read-out: Percent survival (number of colonies in test dishes to colonies in control dishes times 100)): 0% | viability at 200 µg/mL ([1]; Homo sapiens, A101D, 216 h, 200 ug/ml, read-out: Percent survival (number of colonies in test dishes to colonies in control dishes times 100)): 0% | inhibition of colony formation ([2]; 200 μg/ml): Complete inhibition | viability at 10 µg/mL ([2]; Homo sapiens, A549, 216 h, 10 ug/ml, read-out: Percent survival (number of colonies in test dishes to colonies in control dishes times 100)): 91 ± 6% | viability at 20 µg/mL ([2]; Homo sapiens, A549, 216 h, 20 ug/ml, read-out: Percent survival (number of colonies in test dishes to colonies in control dishes times 100)): 94 ± 4% | viability at 40 µg/mL ([2]; Homo sapiens, A549, 216 h, 40 ug/ml, read-out: Percent survival (number of colonies in test dishes to colonies in control dishes times 100)): 69 ± 11% | viability at 60 µg/mL ([2]; Homo sapiens, A549, 216 h, 60 ug/ml, read-out: Percent survival (number of colonies in test dishes to colonies in control dishes times 100)): 9 ± 14% | viability at 80 µg/mL ([2]; Homo sapiens, A549, 216 h, 80 ug/ml, read-out: Percent survival (number of colonies in test dishes to colonies in control dishes times 100)): 0% | viability at 100 µg/mL ([2]; Homo sapiens, A549, 216 h, 100 ug/ml, read-out: Percent survival (number of colonies in test dishes to colonies in control dishes times 100)): 0% | viability at 120 µg/mL ([2]; Homo sapiens, A549, 216 h, 120 ug/ml, read-out: Percent survival (number of colonies in test dishes to colonies in control dishes times 100)): 0% | viability at 200 µg/mL ([2]; Homo sapiens, A549, 216 h, 200 ug/ml, read-out: Percent survival (number of colonies in test dishes to colonies in control dishes times 100)): 0% | activity compared with HMM in the human tumor colony formation test systems [3]: consistently greater activity than HMM | acute toxic effects [4]: No acute toxic effects were observed | inhibition of colony formation ([5]; 200 μg/ml): Complete inhibition | viability at 10 µg/mL ([5]; Homo sapiens, A498, 216 h, 10 ug/ml, read-out: Percent survival (number of colonies in test dishes to colonies in control dishes times 100)): 93 ± 3% | viability at 20 µg/mL ([5]; Homo sapiens, A498, 216 h, 20 ug/ml, read-out: Percent survival (number of colonies in test dishes to colonies in control dishes times 100)): 83 ± 7% | viability at 40 µg/mL ([5]; Homo sapiens, A498, 216 h, 40 ug/ml, read-out: Percent survival (number of colonies in test dishes to colonies in control dishes times 100)): 67 ± 14% | viability at 60 µg/mL ([5]; Homo sapiens, A498, 216 h, 60 ug/ml, read-out: Percent survival (number of colonies in test dishes to colonies in control dishes times 100)): 44 ± 23% | viability at 80 µg/mL ([5]; Homo sapiens, A498, 216 h, 80 ug/ml, read-out: Percent survival (number of colonies in test dishes to colonies in control dishes times 100)): 24 ± 18% | viability at 100 µg/mL ([5]; Homo sapiens, A498, 216 h, 100 ug/ml, read-out: Percent survival (number of colonies in test dishes to colonies in control dishes times 100)): 14 ± 9% | viability at 120 µg/mL ([5]; Homo sapiens, A498, 216 h, 120 ug/ml, read-out: Percent survival (number of colonies in test dishes to colonies in control dishes times 100)): 5 ± 6% | viability at 200 µg/mL ([5]; Homo sapiens, A498, 216 h, 200 ug/ml, read-out: Percent survival (number of colonies in test dishes to colonies in control dishes times 100)): 0% | solubility ([6]; pentane, organic solvent or mixture, read-out: solubility in lipid medium (pentane)): 29 mg/mL (≈ 128 mM) | solubility ([6]; water, read-out: solubility in aqueous medium (water)): 19 mg/mL (≈ 84 mM) | onset of changes in the mouse's behavior after injection [7]: < 1 min | recovery of the fourth mouse ([7]; 1000 mg/kg): recovering completely | time of recovery (dose dependence) ([7]; mouse): dose-dependent time of recovery | time until effects diminished and animal appeared normal ([7]; mouse): 3 to 5 h | time to death ([7]; mouse, 1000 mg/kg): ≤ 3 min | deaths ([7]; mouse, 1000 mg/kg, 4 mice): 3 of the 4 | long-term effects (weight loss, hair loss, death rate vs control animals) ([7]; mouse, 60- and 120-day observation): no long-term effects | recovery of the remaining mice in the other groups ([7]; mouse, 500, 250, 100, 50 and 25 mg/kg): recovered completely in a few hours | toxic phenomenon (flaccid paralysis) ([7]; mouse, 1000-25 mg/kg): dose dependent toxic phenomenon showing a decreasing degree of a flaccid paralysis with decreasing dose | absorption ([7]; mouse, inferred from rapid onset of toxic effect): very rapid absorption | degraded at 4 h ([8]; h2o/h+ (0.01 m hcl), 25° C.): 100% | remaining at 4 h ([8]; h2o/h+ (0.01 m hcl), 25° C.): 0% | degraded at 4 h [8, 10]: 79% | remaining at 4 h [8, 10]: 21% | degraded at 4 h [8, 11]: 100% | remaining at 4 h [8, 11]: 0% | degraded at 24 h ([8]; 25° C.): 0% | remaining at 24 h ([8]; 25° C.): 100% | degraded at 24 h ([8]; 50° C.): 9% | remaining at 24 h ([8]; 50° C.): 91% | degraded at 26 h ([8]; hccl3, HCCl3, 25° C.): 3% | remaining at 26 h ([8]; hccl3, HCCl3, 25° C.): 97% | degraded at 26 h ([8]; hccl3, HCCl3, 50° C.): 37% | remaining at 26 h ([8]; hccl3, HCCl3, 50° C.): 63% | degraded at 20 h ([8]; hccl3, HCCl3): 100% | remaining at 20 h ([8]; hccl3, HCCl3): 0% | degraded at 26 h [8, 12]: 66% | remaining at 26 h [8, 12]: 34% | degraded at 26 h [8, 13]: 97% | remaining at 26 h [8, 13]: 3% | degraded at 20 h [8, 14]: 100% | remaining at 20 h [8, 14]: 0% | degraded at 26 h [8, 15]: 100% | remaining at 26 h [8, 15]: 0% | degraded at 20 h ([8]; pentane): 100% | remaining at 20 h ([8]; pentane): 0% | inhibition of colony formation ([9]; 200 μg/ml): Complete inhibition | viability at 10 µg/mL ([9]; Homo sapiens, A204, 216 h, 10 ug/ml, read-out: Percent survival (number of colonies in test dishes to colonies in control dishes times 100)): 99 ± 26% | viability at 20 µg/mL ([9]; Homo sapiens, A204, 216 h, 20 ug/ml, read-out: Percent survival (number of colonies in test dishes to colonies in control dishes times 100)): 87 ± 13% | viability at 40 µg/mL ([9]; Homo sapiens, A204, 216 h, 40 ug/ml, read-out: Percent survival (number of colonies in test dishes to colonies in control dishes times 100)): 76 ± 17% | viability at 60 µg/mL ([9]; Homo sapiens, A204, 216 h, 60 ug/ml, read-out: Percent survival (number of colonies in test dishes to colonies in control dishes times 100)): 48 ± 21% | viability at 80 µg/mL ([9]; Homo sapiens, A204, 216 h, 80 ug/ml, read-out: Percent survival (number of colonies in test dishes to colonies in control dishes times 100)): 20 ± 17% | viability at 100 µg/mL ([9]; Homo sapiens, A204, 216 h, 100 ug/ml, read-out: Percent survival (number of colonies in test dishes to colonies in control dishes times 100)): 4 ± 4% | viability at 120 µg/mL ([9]; Homo sapiens, A204, 216 h, 120 ug/ml, read-out: Percent survival (number of colonies in test dishes to colonies in control dishes times 100)): 1 ± 2% | viability at 200 µg/mL ([9]; Homo sapiens, A204, 216 h, 200 ug/ml, read-out: Percent survival (number of colonies in test dishes to colonies in control dishes times 100)): 0%
